{
  "source": "patent US9528030B1",
  "about": "“Cobalt inhibitor combination for improved dishing” (Cabot Microelectronics Corporation, priority 2015, dated 2016)",
  "origin": "cited, not measured here",
  "details": "n-octanol-water",
  "note": "Where two headings read alike, the source gives them in different places.",
  "data": [
    {"smiles": "O=C(O)Cc1nnn[nH]1", "note": "[1H-Tetrazole-5-acetic acid]", "values": [
      {"measurement": "Azole Compound logP", "value": "−1.54"}
    ]},
    {"smiles": "Nc1n[nH]c(C(=O)O)n1", "note": "[3-Amino-1,2,4-triazole-5-carboxylic acid]", "values": [
      {"measurement": "Azole Compound logP", "value": "−1.51"}
    ]},
    {"smiles": "Nc1nnn[nH]1", "note": "[5-Aminotetrazole]", "values": [
      {"measurement": "Azole Compound logP", "value": "−0.92"}
    ]},
    {"smiles": "c1ccc2[nH]nnc2c1", "note": "[BTA, benzotriazole]", "values": [
      {"measurement": "Azole Compound logP", "value": "+1.44"},
      {"measurement": "Azole Compound logP", "setting": "listed as benzotriazole", "value": 1.44}
    ]}
  ]
}
